System: CD1 female mouse brain lipidome
Assay: Brain-region lipid levels (HPLC/MS/MS lipidomics) 2 h after single i.p. 3 mg/kg CP 55,940 vs vehicle
Assay type: in vivo
Experimental: The Bloomington Institutional Animal Care and Use Committee of Indiana University reviewed and approved the animal procedures. Female mice from the CD1 strain were utilized to match our study examining THC’s effects on the brain lipidome ([Leishman et al., 2018]). Mice were given a single i.p. injection of either 3 mg/kg CP or 1:1:18 cremophor:ethanol:saline vehicle (please refer to the section “3 mg/kg CP Is Relevant for Synthetic Cannabinoid Abuse and Has Stronger Effects on the Female Mouse Brain Lipidome During Adolescence” for a justification of dose and use of female mice). Three different age groups were given injections: PND 35 and PND 50 adolescents, and adult mice (PND 113). At least eight mice in each age group received CP and at least eight received vehicle. Matching the THC study time course ([Leishman et al., 2018]), mice were sacrificed via rapid decapitation 2 h after injection. Brains were immediately removed and flash-frozen in liquid nitrogen, and then stored at -80°C until dissections were performed. Brains were dissected on an ice-cold dissection plate into the following regions: STR, HIPP, CER, THAL, CTX, HYP, MID, and STEM. These abbreviations for these brain areas will be used exclusively when discussing the results generated by these specific dissections. Each dissected area was immediately placed in liquid nitrogen and then stored at -80°C until used for lipid extraction.
Tissue extracts were performed as previously described ([Bradshaw et al., 2006]; [Stuart et al., 2013]; [Raboune et al., 2014]; [Leishman et al., 2016a],[b], [2017], [2018]). First, samples were shock frozen in liquid nitrogen, weighed, and transferred to a centrifuge tube. The mass of the largest sample was multiplied by 50 to determine how many milliliters of HPLC-grade methanol (Fisher, Fair Lawn, NJ, United States) to add. Then, samples were spiked with 500 pmol deuterium-labeled NAGly (d8NAGly; Cayman Chemical, Ann Arbor, MI, United States). Samples were placed on ice in darkness for 2 h then individually homogenized and centrifuged at 19,000 × g for 20 min at 20°C. Supernatants were diluted with HPLC water (purified in house) to make a solution of 75% water, 25% supernatant. Lipids were partially purified on C18 solid phase extraction columns (Agilent, Palo Alto, CA, United States). A series of four elutions with 1.5 mL of 60%, 75%, 85%, and 100% methanol were collected ([Stuart et al., 2013]; [Leishman et al., 2016a],[b], [2018]).
As previously described ([Bradshaw et al., 2006]; [Tan et al., 2006]; [Smoum et al., 2010]; [Stuart et al., 2013]; [Tortoriello et al., 2013]; [Raboune et al., 2014]; [Leishman et al., 2016a],[b], [2017], [2018]), samples were analyzed using an Applied Biosystems API 3000 triple quadrupole mass spectrometer with electrospray ionization (Foster City, CA, United States). Using an Agilent XDB-C18 reversed phase analytical column and optimized mobile phase gradients, 20 μL from each elution were chromatographed. Two Shimadzu 10ADvp pumps (Columbia, MD, United States) provided the pressure for gradient elution. Mobile phase A: 20% methanol, 80% water (v/v) and 1 mM ammonium acetate (Sigma, St. Louis, MO, United States). Mobile phase B: 100% methanol, 1 mM ammonium acetate. Every method run began with 0% mobile phase B, reached 100% mobile phase B flowing at 0.2 mL/min, and gradually returned to 0% mobile phase B.
This screening library will be referred to as the lipidome when discussing data from this study. HPLC/MS/MS data were analyzed using Analyst software (Applied Biosystems) ([Bradshaw et al., 2006]; [Tan et al., 2006]; [Stuart et al., 2013]; [Tortoriello et al., 2013]; [Raboune et al., 2014]; [Leishman et al., 2016a],[b], [2017], [2018]). Chromatograms (Supplementary Figure 3) were generated by determining the retention time of analytes from the analytical column with a [M-1] or [M+1] parent peak and a fragmentation peak corresponding to the programmed values. […]

CCCCCCC(C)(C)c1ccc([C@@H]2C[C@H](O)CC[C@H]2CCCO)c(O)c1 [CP 55,940]
N-stearoyl leucine mean level (PND 35 striatum): 9.98E-13 moles per gram
N-stearoyl methionine mean level (PND 35 striatum): 1.31E-12 moles per gram
N-stearoyl phenylalanine mean level (PND 35 striatum): 1.28E-12 moles per gram
N-stearoyl serine mean level (PND 35 striatum): 1.89E-11 moles per gram
N-stearoyl tryptophan mean level (PND 35 striatum): 5.77E-13 moles per gram
Oleic acid mean level (PND 35 striatum): 1.18E-09 moles per gram
PGE2 mean level (PND 35 striatum): 3.74E-10 moles per gram
PGF2α mean level (PND 35 striatum): 2.8E-10 moles per gram
PhosphoLEA mean level (PND 35 striatum): 1.91E-11 moles per gram
total changes in lipid levels across the eight regions (PND 50): 141
changes in lipid levels that were decreases (PND 50, eight regions): 110
2-linoleoyl glycerol level vs vehicle (PND 50 CER): ↓↓ (1.50-1.99 times lower than vehicle)
2-oleoyl glycerol level vs vehicle (PND 50 CER): ↓ (1-1.49 times lower than vehicle)
2-palmitoyl glycerol level vs vehicle (PND 50 CER): ↓ (1-1.49 times lower than vehicle)
6-ketoPGF1α level vs vehicle (PND 50 CER): ↑ (1-1.49 times higher than vehicle)
Arachidonic acid level vs vehicle (PND 50 CER): ↓ (1-1.49 times lower than vehicle)
Linoleic acid level vs vehicle (PND 50 CER): ↓ (1-1.49 times lower than vehicle)
N-arachidonoyl GABA level vs vehicle (PND 50 CER): ↓ (1-1.49 times lower than vehicle)
N-arachidonoyl ethanolamine level vs vehicle (PND 50 CER): ↓ (1-1.49 times lower than vehicle)
N-arachidonoyl glycine level vs vehicle (PND 50 CER): ↓ (1-1.49 times lower than vehicle)
N-arachidonoyl phenylalanine level vs vehicle (PND 50 CER): ↓↓ (1.50-1.99 times lower than vehicle)
N-arachidonoyl serine level vs vehicle (PND 50 CER): ↓ (1-1.49 times lower than vehicle)
N-arachidonoyl taurine level vs vehicle (PND 50 CER): ↓ (1-1.49 times lower than vehicle)
N-arachidonoyl tyrosine level vs vehicle (PND 50 CER): ↓ (1-1.49 times lower than vehicle)
N-docosahexaenoyl phenylalanine level vs vehicle (PND 50 CER): ↓ (1-1.49 times lower than vehicle)
N-linoleoyl ethanolamine level vs vehicle (PND 50 CER): ↓ (1-1.49 times lower than vehicle)
N-oleoyl GABA level vs vehicle (PND 50 CER): ↓ (1-1.49 times lower than vehicle)
N-oleoyl ethanolamine level vs vehicle (PND 50 CER): ↓ (1-1.49 times lower than vehicle)
N-oleoyl phenylalanine level vs vehicle (PND 50 CER): ↑ (1-1.49 times higher than vehicle)
N-palmitoyl leucine level vs vehicle (PND 50 CER): ↑↑ (1.50-1.99 times higher than vehicle)
N-palmitoyl valine level vs vehicle (PND 50 CER): ↑ (1-1.49 times higher than vehicle)
Oleic Acid level vs vehicle (PND 50 CER): ↓ (1-1.49 times lower than vehicle)
PGE2 level vs vehicle (PND 50 CER): ↓ (1-1.49 times lower than vehicle)
PGF2α level vs vehicle (PND 50 CER): ↓ (1-1.49 times lower than vehicle)
2-linoleoyl glycerol level vs vehicle (PND 50 CTX): ↓ (1-1.49 times lower than vehicle)
2-oleoyl glycerol level vs vehicle (PND 50 CTX): ↓ (1-1.49 times lower than vehicle)
Arachidonic acid level vs vehicle (PND 50 CTX): ↓ (1-1.49 times lower than vehicle)
Linoleic acid level vs vehicle (PND 50 CTX): ↓↓ (1.50-1.99 times lower than vehicle)
N- stearoyl valine level vs vehicle (PND 50 CTX): ↑ (1-1.49 times higher than vehicle)
N-arachidonoyl GABA level vs vehicle (PND 50 CTX): ↓ (1-1.49 times lower than vehicle)
N-arachidonoyl alanine level vs vehicle (PND 50 CTX): ↓ (1-1.49 times lower than vehicle)
N-arachidonoyl ethanolamine level vs vehicle (PND 50 CTX): ↓ (1-1.49 times lower than vehicle)
N-arachidonoyl phenylalanine level vs vehicle (PND 50 CTX): ↓ (1-1.49 times lower than vehicle)
N-arachidonoyl taurine level vs vehicle (PND 50 CTX): ↓ (1-1.49 times lower than vehicle)
N-docosahexaenoyl ethanolamine level vs vehicle (PND 50 CTX): ↓ (1-1.49 times lower than vehicle)
N-linoleoyl ethanolamine level vs vehicle (PND 50 CTX): ↓ (1-1.49 times lower than vehicle)
N-oleoyl ethanolamine level vs vehicle (PND 50 CTX): ↓↓ (1.50-1.99 times lower than vehicle)
N-oleoyl serine level vs vehicle (PND 50 CTX): ↑ (1-1.49 times higher than vehicle)
N-palmitoyl leucine level vs vehicle (PND 50 CTX): ↑ (1-1.49 times higher than vehicle)
N-palmitoyl methionine level vs vehicle (PND 50 CTX): ↑ (1-1.49 times higher than vehicle)
N-palmitoyl phenylalanine level vs vehicle (PND 50 CTX): ↑ (1-1.49 times higher than vehicle)
N-palmitoyl tyrosine level vs vehicle (PND 50 CTX): ↑ (1-1.49 times higher than vehicle)
N-palmitoyl valine level vs vehicle (PND 50 CTX): ↑ (1-1.49 times higher than vehicle)
N-stearoyl phenylalanine level vs vehicle (PND 50 CTX): ↑ (1-1.49 times higher than vehicle)
PGE2 level vs vehicle (PND 50 CTX): ↓ (1-1.49 times lower than vehicle)
2-linoleoyl glycerol level vs vehicle (PND 50 HIPP): ↓ (1-1.49 times lower than vehicle)
6-ketoPGF1α level vs vehicle (PND 50 HIPP): ↑ (1-1.49 times higher than vehicle)
Linoleic acid level vs vehicle (PND 50 HIPP): ↓ (1-1.49 times lower than vehicle)
N-arachidonoyl alanine level vs vehicle (PND 50 HIPP): ↓ (1-1.49 times lower than vehicle)
N-arachidonoyl ethanolamine level vs vehicle (PND 50 HIPP): ↓↓ (1.50-1.99 times lower than vehicle)
N-arachidonoyl glycine level vs vehicle (PND 50 HIPP): ↓↓ (1.50-1.99 times lower than vehicle)
N-arachidonoyl serine level vs vehicle (PND 50 HIPP): ↓↓ (1.50-1.99 times lower than vehicle)
N-arachidonoyl taurine level vs vehicle (PND 50 HIPP): ↓ (1-1.49 times lower than vehicle)
N-arachidonoyl tyrosine level vs vehicle (PND 50 HIPP): ↑ (1-1.49 times higher than vehicle)
N-docosahexaenoyl ethanolamine level vs vehicle (PND 50 HIPP): ↓ (1-1.49 times lower than vehicle)
N-linoleoyl ethanolamine level vs vehicle (PND 50 HIPP): ↓↓ (1.50-1.99 times lower than vehicle)
N-linoleoyl serine level vs vehicle (PND 50 HIPP): ↑ (1-1.49 times higher than vehicle)
N-oleoyl leucine level vs vehicle (PND 50 HIPP): ↓ (1-1.49 times lower than vehicle)
N-oleoyl serine level vs vehicle (PND 50 HIPP): ↑ (1-1.49 times higher than vehicle)
PGE2 level vs vehicle (PND 50 HIPP): ↑ (1-1.49 times higher than vehicle)
PGF2α level vs vehicle (PND 50 HIPP): ↑ (1-1.49 times higher than vehicle)
2-arachidonoyl glycerol level vs vehicle (PND 50 HYP): ↓ (1-1.49 times lower than vehicle)
N-arachidonoyl phenylalanine level vs vehicle (PND 50 HYP): ↓ (1-1.49 times lower than vehicle)
N-palmitoyl leucine level vs vehicle (PND 50 HYP): ↑ (1-1.49 times higher than vehicle)
PGF2α level vs vehicle (PND 50 HYP): ↑ (1-1.49 times higher than vehicle)
number of lipids changed (PND 50 HYP, 49 detected): four
2-linoleoyl glycerol level vs vehicle (PND 50 MID): ↓ (1-1.49 times lower than vehicle)
2-oleoyl glycerol level vs vehicle (PND 50 MID): ↓ (1-1.49 times lower than vehicle)
6-ketoPGF1α level vs vehicle (PND 50 MID): ↓ (1-1.49 times lower than vehicle)
Linoleic acid level vs vehicle (PND 50 MID): ↓ (1-1.49 times lower than vehicle)
N-arachidonoyl GABA level vs vehicle (PND 50 MID): ↓ (1-1.49 times lower than vehicle)
N-arachidonoyl alanine level vs vehicle (PND 50 MID): ↓↓ (1.50-1.99 times lower than vehicle)
N-arachidonoyl ethanolamine level vs vehicle (PND 50 MID): ↓ (1-1.49 times lower than vehicle)
N-arachidonoyl glycine level vs vehicle (PND 50 MID): ↓↓ (1.50-1.99 times lower than vehicle)
N-arachidonoyl methionine level vs vehicle (PND 50 MID): ↓↓ (1.50-1.99 times lower than vehicle)
N-arachidonoyl phenylalanine level vs vehicle (PND 50 MID): ↓ (1-1.49 times lower than vehicle)
N-arachidonoyl tyrosine level vs vehicle (PND 50 MID): ↓ (1-1.49 times lower than vehicle)
N-docosahexaenoyl GABA level vs vehicle (PND 50 MID): ↓ (1-1.49 times lower than vehicle)
N-docosahexaenoyl ethanolamine level vs vehicle (PND 50 MID): ↓ (1-1.49 times lower than vehicle)
N-docosahexaenoyl leucine level vs vehicle (PND 50 MID): ↑ (1-1.49 times higher than vehicle)
N-linoleoyl ethanolamine level vs vehicle (PND 50 MID): ↓ (1-1.49 times lower than vehicle)
N-oleoyl ethanolamine level vs vehicle (PND 50 MID): ↓ (1-1.49 times lower than vehicle)
N-oleoyl methionine level vs vehicle (PND 50 MID): ↓↓ (1.50-1.99 times lower than vehicle)
N-palmitoyl alanine level vs vehicle (PND 50 MID): ↓ (1-1.49 times lower than vehicle)
N-palmitoyl ethanolamine level vs vehicle (PND 50 MID): ↓ (1-1.49 times lower than vehicle)
N-palmitoyl leucine level vs vehicle (PND 50 MID): ↑ (1-1.49 times higher than vehicle)
N-palmitoyl serine level vs vehicle (PND 50 MID): ↓ (1-1.49 times lower than vehicle)
N-stearoyl methionine level vs vehicle (PND 50 MID): ↓ (1-1.49 times lower than vehicle)
N-stearoyl phenylalanine level vs vehicle (PND 50 MID): ↓ (1-1.49 times lower than vehicle)
Oleic Acid level vs vehicle (PND 50 MID): ↓ (1-1.49 times lower than vehicle)
PGE2 level vs vehicle (PND 50 MID): ↓ (1-1.49 times lower than vehicle)
PGF2α level vs vehicle (PND 50 MID): ↓ (1-1.49 times lower than vehicle)

Reference: article PMC6277767, “Broad and Region-Specific Impacts of the Synthetic Cannabinoid CP 55,940 in Adolescent and Adult Female Mouse Brains” (Frontiers in Molecular Neuroscience, 2018)
